In patent US6492399B1, “Pharmaceutical compositions and methods for use” (Targacept, Inc., priority 1998, dated 2002):

What was measured:
Type in all cases: biochemical
dopamine release = assay: Determination of dopamine release; settings: amount released relative to (S)-(-)-nicotine
Procedure: Determination of Dopamine Release
Dopamine release was measured using the techniques described in U.S. Pat. No. 5,597,919 to Dull et al. Release is expressed as a percentage of release obtained with a concentration of (S)-(−)-nicotine resulting in maximal effects. Reported EC50 values are expressed in nM, and Emax values represent the amount released relative to (S)-(−)-nicotine on a percentage basis.

Rat brain synaptosomes = assay: Neurotransmitter release from brain synaptosomes; settings: 10 μM ligand; percentage of release with 10 μM (S)-(-)-nicotine or 300 μM TMA
Procedure: Neurotransmitter Release From Brain Synaptosomes
Neurotransmitter release was measured using techniques similar to those previously published (Bencherif M, et al . . . JPET279: 1413-1421, 1996).
Rat brain synaptosomes were prepared as follows: Female Sprague Dawley rats (100-200 g) were killed by decapitation after anesthesia with 70% CO2. Brains are dissected, and hippocampus, striatum, and thalamus isolated, and homogenized in 0.32 M sucrose containing 5 mM HEPES pH 7.4 using a glass/glass homogenizer. The tissue was then centrifuged for 1000×g for 10 minutes and the pellet discarded. The supernatant was centrifuged at 12000×g for 20 minutes. The resultant pellet was re-suspended in perfusion buffer (128 mM NaCl, 1.2 mM KH2PO4, 2.4 mM KCl, 3.2 mM CaCl2, 1.2 mM MgSO4, 25 mM HEPES, 1 mM Ascorbic acid, 0.01 mM pargyline HCl and 10 mM glucose pH 7.4) and centrifuged for 15 minutes at 25000×g. The final pellet was resuspended in perfusion buffer and placed in a water bath (37° C.) for 10 minutes. Radiolabeled neurotransmitter is added (30 μL ^3H DA, 20 μL ^3H NE, 10 μL ^3H glutamate) to achieve a final concentration of 100 nM, vortexed and placed in a water bath for additional 10 minutes. Tissue-loaded filters is placed onto 11-mm diameter Gelman A/E filters on an open-air support. After a 10-minute wash period, fractions are collected to establish the basal release and agonist applied in the perfusion stream. Further fractions were collected after agonist application to re-establish the baseline. The perfusate was collected directly into scintillation vials and released radioactivity was quantified using conventional liquid scintillation techniques. Release of neurotransmitter was determined in the presence of 10μM of various ligands and was expressed as a percentage of release obtained with a concentration of 10 μM (S)-(−)-nicotine or 300 μM TMA resulting in maximal effects.

rubidium ion flux = assay: Determination of rubidium ion release (rubidium ion flux assay); settings: rubidium ion released relative to 300 uM tetramethylammonium ion
Procedure: Determination of Rubidium Ion Release
Rubidium release was measured using the techniques described in Bencherif et al., JPET, 279: 1413-1421 (1996). Reported EC50 values are expressed in nM, and Ema, values represent the amount of rubidium ion released relative to 300 uM tetramethylammonium ion, on a percentage basis.

SMILES	Emax for dopamine release (dopamine release) [%]	neurotransmitter release Emax (Rat brain synaptosomes) [%]	Emax in the rubidium ion flux assay (rubidium ion flux) [%]
CNCC/C=C/c1cncc(C(=O)NCc2ccccc2)c1 [Sample No. 2, (3E)-N-methyl-N-[3-(5-(N-benzylcarboxamido)pyridin)yl]-3-buten-1-amine]	12		
CN[C@@H](C)C/C=C/c1cc(OC(C)C)c[n+]([O-])c1 [Sample No. 5]		19	
CNCC/C=C/c1cncc(OCC(C)C)c1 [Sample No. 6, (3E)-N-methyl-4-(3-(5-isobutoxypyridin)yl)-3-buten-1-amine hemigalactarate]	25		15
CNC(C)CC=Cc1ccc[n+]([O-])c1 (centres unmarked) [Sample No. 8, (4E)-N-methyl-5-(3-(1-oxopyridin)yl)-4-penten-2-amine]		9	
CCSc1cncc(/C=C/CCNC)c1 [Sample No. 9, (3 E)-N-methyl-4-(3-(5-ethylthiopyridin)yl)-3-buten-1-amine hemigalactarate]	39		40
CNC(C)CC=Cc1cncc(C(F)(F)F)c1 (centres unmarked) [Sample No. 10, (4E)-N-methyl-5-(3-(5-trifluoromethylpyridin)yl)-4-penten-2-amine]		50	0
CC(N)CC=Cc1cncc(OC(C)C)c1 (centres unmarked) [Sample No. 12, (4E)-5-(3-(5-isopropoxypyridin)yl)-4-penten-2-amine hemigalactarate]		32	
CNC(C)CC=Cc1cncc(O)c1 (centres unmarked) [Sample No. 13, (4E)-N-methyl-5-(3-(5-hydroxypyridin)yl)-4-penten-2-amine sesquioxalate]		80	
